Source: the NIST ThermoML archive (doi:10.1016/j.jct.2014.04.021)
Numbers after ± are expanded uncertainties.

Conditions: for Normal melting temperature: Crystal, DTA; for mass density: 101.33 kPa, Liquid, Vibrating tube method

Structure (SMILES)	Normal melting temperature	other results
CCCCCC[n+]1cccc2ccccc21.O=S(=O)([N-]S(=O)(=O)C(F)(F)F)C(F)(F)F [1-hexylquinolinium bis(trifluoromethylsulfonyl)amide]	45 ± 0.4 °C	
CCCCCC[N+]1(C)CCCCC1.O=S(=O)([N-]S(=O)(=O)C(F)(F)F)C(F)(F)F		mass density (293 K): 1329.5 ± 1.1 kg/m3; mass density (298.15 K): 1325.4 ± 1.1 kg/m3
CCCCn1cc[n+](C)c1.N#CC1=NC(C(F)(F)F)=NC1=C=[N-]		mass density (298.15 K): 1199.65 ± 1.5 kg/m3
C[n+]1ccn(CC#N)c1.N#Cc1nc(C(F)(F)F)[n-]c1C#N	92.7 ± 0.4 °C	
OC[C@@H](O)[C@@H](O)[C@H](O)[C@@H](O)CO [D-sorbitol]	98.6 ± 0.4 °C	
OC[C@@H](O)[C@H](O)[C@@H](O)CO [xylitol]	94.1 ± 0.4 °C	
CCCCCC[n+]1ccc2ccccc2c1.O=S(=O)([N-]S(=O)(=O)C(F)(F)F)C(F)(F)F [N-hexylisoquinolinium bis(trifluoromethylsulfonyl)imide]		mass density (333.2 K): 1349.3 ± 1.8 kg/m3
